Laboratory results from ChEMBL document CHEMBL5236666, “Investigation of mitochondrial targeting ability of sydnones and sydnonimines and mitochondria-targeted delivery of celecoxib” (Bioorg Med Chem Lett, 2023).

Experiments:
HeLa [1] = assay: Cytotoxicity against human HeLa cells assessed as inhibition of cell proliferation; type: functional, cell-based
HepG2 [2] = assay: Cytotoxicity against human HepG2 cells assessed as inhibition of cell proliferation; type: functional, cell-based
HeLa [3] = assay: Cytotoxicity against human HeLa cells assessed as inhibition of cell proliferation in presence of 100 uM of DIBAC; type: functional, cell-based
HepG2 [4] = assay: Cytotoxicity against human HepG2 cells assessed as inhibition of cell proliferation in presence of 100 uM of DIBAC; type: functional, cell-based
[5] = Drug uptake in mitochondria of human HeLa cells incubated for 30 mins; type: ADME; details: 0.5 h
[6] = Drug uptake in human HeLa cells assessed as increase in colocalization by measuring fluorescence intensity at 5 uM incubated for 30 mins; type: ADME, cell-based; details: 0.5 h

SMILES | IC50 (HeLa [1]) | IC50 (HepG2 [2]) | Drug uptake [5] | further results
CCOC(=O)c1ccc(-[n+]2cc([N-]S(=O)(=O)c3ccc(-n4nc(C(F)(F)F)cc4-c4ccc(C)cc4)cc3)on2)cc1 | > 100 µM | > 100 µM |  | IC50 (HeLa [3]): 85.3 µM; IC50 (HepG2 [4]): 66.2 µM
Cc1ccc(-c2cc(C(F)(F)F)nn2-c2ccc(S(N)(=O)=O)cc2)cc1 [CELECOXIB] | 32.7 µM | 43.6 µM |  | 
CC1=CC(C)=[N+]2C1=Cc1ccc(CCC(=O)NCCCNC(=O)c3ccc(-[n+]4cc(O)on4)cc3)n1[B-]2(F)F |  |  | Active | 
CC1=CC(C)=[N+]2C1=Cc1ccc(CCC(=O)NCCCNC(=O)c3ccc(-[n+]4noc(O)c4-c4ccccc4)cc3)n1[B-]2(F)F |  |  | Not Active | 
O=C(NCCCNC(=O)c1ccc(-[n+]2cc([O-])on2)cc1)OCC1C[C@@H]2C=C[C@H]1C2 (some centres undefined) |  |  |  | Drug uptake [6]: Active
